Results from ChEMBL document CHEMBL1142836 (Bioorg Med Chem Lett, 2005).

target: Carbonic anhydrase 9 (Homo sapiens, UniProt Q16790)

| Compound | Ki [nM] |
| --- | --- |
| CN1CCN(CC(=O)Nc2nnc(S(N)(=O)=O)s2)CC1 | 31 |
| NS(=O)(=O)c1ccc(NC(=O)CN2CCOCC2)cc1 | 181 |
| CC1CCN(CCCC(=O)Nc2ccc(S(N)(=O)=O)cc2)CC1 | 90 |
| CC1CCN(CCC(=O)Nc2ccc(S(N)(=O)=O)cc2)CC1 | 197 |
| NS(=O)(=O)c1ccc(NC(=O)CCN2CCC(Cc3ccccc3)CC2)cc1 | 248 |
| NS(=O)(=O)c1nnc(NC(=O)CN2CCOCC2)s1 | 22 |
| NS(=O)(=O)c1ccc(NC(=O)CCN2CCN(Cc3ccccc3)CC2)cc1 | 240 |
| CC1CCN(CC(=O)Nc2nnc(S(N)(=O)=O)s2)CC1 | 35 |
| NS(=O)(=O)c1ccc(NC(=O)CCCCN2CCOCC2)cc1 | 163 |
| NS(=O)(=O)c1nnc(NC(=O)CN2CCN(Cc3ccccc3)CC2)s1 | 67 |
| CN1CCN(CCC(=O)Nc2ccc(S(N)(=O)=O)cc2)CC1 | 235 |
| NS(=O)(=O)c1ccc(NC(=O)CCN2CCOCC2)cc1 | 184 |
| NS(=O)(=O)c1ccc(NC(=O)CCCN2CCOCC2)cc1 | 246 |
| CN1CCN(CCC(=O)Nc2nnc(S(N)(=O)=O)s2)CC1 | 33 |
